Experimental data as given in publication PMC9173638 (PLoS Genetics, 2022).
Where “and” joins values, the source holds several entries; their conditions need not be identical. Equal entries are not always repeated. Entries after “also recorded” stand apart in the source; their conditions may differ. No end group written: not given here.

What was measured:
[1] = system: PepF; experiment: Screening of sXIP variants for susceptibility to PepF degradation; format: in vitro ADME, Streptococcus salivarius HSISS4; details: for percentage of signal loss: peptide 500 nM pre-incubated with PepF 7 nM, 4 h, 37°C vs without PepF, PcomS-luxAB ΔcomS reporter luminescence, mean of technical triplicates; for peptidase resistance in the screening: PepF 7 nM, peptide 500 nM, signal loss compared with native XIP
Protocol: We next investigated which residues of the pheromone are crucial for peptidase cleavage and screened 20 peptides variants with single XIP mutations. We incubated those peptides with PepF at a mid-range concentration previously identified for the native XIP ([PepF] of 7 nM and [XIP] of 500 nM). Next, we added the peptides incubated or not with PepF to the PcomS-luxAB ΔcomS reporter strain and analyzed the percentage of signal loss upon incubation with the peptidase. […] To quantify more accurately the PepF resistance of variants at those two positions, we used the same degradation assay as used for native sXIP and measured the EC50 for each variant (Figs 5A and S5). Since F4W, F4Y and A5I variants were the most resistant, we combined mutations at positions 4 and 5 in a single peptide to increase its robustness to degradation. […] Because our degradation assay is based on an indirect method of quantification through the use of a reporter strain, bias could be introduced by the effect of the mutations on the ComR-pheromone affinity. To rule out this possibility, we measured the ComR-binding properties of the peptides by electrophoretic mobility shift assays (S6 Fig). Since no correlation between peptide-binding to ComR and pheromone sensitivity to degradation could be drawn, we concluded that the luciferase degradation assay reflects the peptide susceptibility to PepF.
Supplementary file pgen.1010198.s004.tif: S4 Fig Screening of sXIP variants for competence activation and susceptibility to PepF degradation. Specific maximum luciferase activity (RLU/OD600) upon peptide addition is plotted against the loss of signal with the peptide pre-incubated with PepF (plotted as a percentage of signal loss). A total number of 20 sXIP variants of the native S. salivarius sXIP (LPYFAGCL) were tested. The different peptides (500 nM) were incubated during 4 h at 37°C with or without PepF (7 nM). The reaction mixture was then 10-fold diluted by addition to an exponential growing culture (CDM) of the reporter strain defective for the genetically-encoded pheromone XIP (PcomS-luxAB ΔcomS). Dots represents mean of technical triplicates. […] Red/blue dots denote peptides discarded/selected for subsequent characterization due to their weak/strong induction of competence. (TIF) Click here for additional data file.

[2] = system: PcomS-luxAB ΔcomS reporter strain; experiment: Screening of sXIP variants for competence activation; format: cell-based, Streptococcus salivarius; details: peptide 500 nM incubated 4 h 37°C without PepF, 10-fold diluted into PcomS-luxAB ΔcomS culture (CDM); mean of technical triplicates
Protocol: (§1) Overnight precultures were diluted at a final OD600 of 0.05. A volume of 300 μL of culture samples was transferred in the wells of a sterile covered white microplate with a transparent bottom (Greiner, Alphen a/d Rijn, The Netherlands). These culture samples were supplemented with D-xylose or IPTG if stated or further incubated for 100 min at 37°C before supplementation with sXIP or other peptides variants. Growth (OD600) and luciferase (Lux) activity (expressed in relative light units, RLU) were monitored at 10 min intervals during 6 to 24 h in a Hidex Sense microplate reader (Hidex, Lemminkäisenkatu, Finland). Specific or maximum specific Lux activity were obtained by dividing Lux activity by the OD600 for each measurement and summing all the data obtained over time or selecting the maximum value, respectively. Biological or technical triplicates were then averaged. Statistical analyses of simple and multiple comparisons to the control mean were performed with t-test (unilateral distribution, heteroscedastic) and one-way ANOVA with Dunnett’s test, respectively. For both, standard deviations and P values were calculated.
Supplementary file pgen.1010198.s004.tif: S4 Fig Screening of sXIP variants for competence activation and susceptibility to PepF degradation. […]

[3] = molecular target: PepF (Streptococcus salivarius K12, UniProt J7TQB7); format: in vitro ADME, Streptococcus salivarius HSISS4; details: PepF gradient, peptide 500 nM, 4 h, 37°C
PepF (Streptococcus salivarius K12, UniProt J7TQB7), sequence (J7TQB7 entry or part of it): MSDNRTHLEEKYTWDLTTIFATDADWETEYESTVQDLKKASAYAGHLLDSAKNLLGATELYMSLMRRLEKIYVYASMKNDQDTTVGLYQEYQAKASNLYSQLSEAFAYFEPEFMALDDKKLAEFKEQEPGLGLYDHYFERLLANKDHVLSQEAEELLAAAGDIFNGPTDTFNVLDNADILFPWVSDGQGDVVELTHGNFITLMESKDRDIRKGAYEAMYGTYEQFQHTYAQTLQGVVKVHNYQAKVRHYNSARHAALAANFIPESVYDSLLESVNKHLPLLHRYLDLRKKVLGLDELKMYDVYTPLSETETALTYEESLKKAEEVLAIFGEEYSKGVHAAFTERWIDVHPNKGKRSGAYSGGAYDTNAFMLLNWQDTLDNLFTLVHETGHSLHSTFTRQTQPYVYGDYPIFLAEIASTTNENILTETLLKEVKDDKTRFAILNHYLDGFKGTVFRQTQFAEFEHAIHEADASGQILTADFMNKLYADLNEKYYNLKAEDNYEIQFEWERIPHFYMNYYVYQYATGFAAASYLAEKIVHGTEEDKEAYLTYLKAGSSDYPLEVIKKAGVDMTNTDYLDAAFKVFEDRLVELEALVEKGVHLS
Protocol: as §1
For PepF purification, the PCR-amplified pepF gene from strain HSISS4 was cloned into the pBAD-covR-STN-ter vector [24]. […] Protein purity was analyzed by SDS-PAGE and concentration was measured using a Nanodrop apparatus (A280 method; ThermoFisher Scientific). […]

[4] = system: PepF; experiment: recombinant PepF in reaction buffer (20 mM Tris HCl, pH 7.0); details: S. salivarius HSISS4, 37°C, up to 4 h
[5] = system: PepF; experiment: Kinetics of peptide degradation by PepF; format: in vitro ADME, Streptococcus salivarius HSISS4; details: PepF 8 nM, peptide 500 nM, 6 h, 37°C
Protocol: Fig 5 Degradation of PepF-resistant sXIP peptides. (A) PepF degradation efficiency for XIP (LPY[F/Y/W][A/M/I/V]GCL) variants. […] Bars denote standard deviations on the EC50 computation. (B) XIP and XIPF4WA5I kinetics of degradation by PepF. PepF (8 nM) and the peptides (500 nM) were incubated 6 hours at 37°C and sampled every hour for analysis. Reaction was stopped by adding 1 mM EDTA and further added to the PcomS-luxAB ΔcomS reporter strain as previously described. Dots show technical triplicates, the line connects mean values with error bars (standard deviation).
(§2) sXIP and derivatives were incubated at 500 nM with PepF at different concentrations ranging from 100 to 0.025 nM during 4 h at 37°C as described in the previous section. 30 μL of the mix was then added to 270 μL of exponential phase culture of a PcomS reporter strain defective for the pheromone (PcomS-luxAB ΔcomS) and maximum luciferase activity was computed as reported above. Maximum values obtained were normalized by the signal recorded for the peptide incubated without the peptidase and enzyme concentration affording half luminescence (EC50) was extrapolated using Graphpad Prism and the non-linear extrapolation equation: Signal=b+(t−b)/(1+IC50/[PepF]^HS) where t stands for top, b for bottom, and HS for Hill-Slope.

[6] = system: PepFSsa; format: in vitro ADME, Streptococcus salivarius HSISS4; details: from EC50 values
Protocol: as §2
Supplementary file pgen.1010198.s009.tif: S9 Fig Conservation of PepF in salivarius streptococci and susceptibility of S. vestibularis sXIP to PepF degradation. (A) Alignment of PepF performed with CLC Main Workbench multiple alignment tool (http://www.clcbio.com/products/clc-main-workbench/). PepF from 4 representative strains (i.e. S. salivarius HSISS4, S. thermophilus LMD-9, S. thermophilus LMG18311 and S. vestibularis NTC12167) were used for the alignment. Red, orange, and yellow denote 100%, 75%, and 50% conservation, respectively. The conserved Zinc-binding motif HEXXH is underlined. […]

Substance	percentage of signal loss [1]	other results
LPYFAGCL [sXIP, reference compound]	99.5932%	–
LPYFIGCL [LPYFIGCL]	78.4996%	peptidase resistance in the screening [1]: higher peptidase resistance
LPYFAACL [LPYFAACL]	99.6712%	–
LPYFAGAL [LPYFAGAL]	99.8977%	–
LPYFTGCL [LPYFTGCL]	97.3896%	–
LPYFAICL [LPYFAICL]	1.804%	–
LPYAAGCL [LPYAAGCL]	77.0857%	–
_PYFAGCL [sXIP variant of the screening lacking the first residue]	–	Max specific luciferase [2]: 1453.53 RLU/OD600
LPYFGGCL [LPYFGGCL]	69.5765%	–
LPYYIGCL [LPYYIGCL]	–	proteolysis by PepF in vitro [3]: slower proteolysis
LPYWAGCL [LPYWAGCL]	68.1634%	peptidase resistance in the screening [1]: higher peptidase resistance
LPYFAGCL	–	cleaved bond [4]: F4-A5, major; also recorded: A5-G6, major
LPAFAGCL [LPAFAGCL]	83.5452%	–
LAYFAGCL [LAYFAGCL]	40.0979%	–
LPYWIGCL [LPYWIGCL]	–	proteolysis by PepF in vitro [3]: slower proteolysis; degradation kinetics compared to the WT pheromone [5]: reduced degradation kinetics
LPWFAGCL [LPWFAGCL]	97.3022%	–
LPYFMGCL [LPYFMGCL]	85.0947%	peptidase resistance in the screening [1]: higher peptidase resistance
APYFMGCL [APYFMGCL]	99.0138%	–
VPFFMIYY [sXIPSve]	–	PepF-mediated degradation, fold less efficient compared to XIPSsa/Sth [6]: ~ 15 fold
APYFAGCL [APYFAGCL]	87.3461% and 90.7518%	–
LPYFVGCL [LPYFVGCL]	94.8201%	–
ITILPYFAGCL [ITILPYFAGCL]	99.5087%	–
_PYFMGCL [sXIP variant of the screening lacking the first residue]	28.6586%	Max specific luciferase [2]: 2144.5 RLU/OD600
LPYFMICL [LPYFMICL]	10.0484%	–
LPYYAGCL [LPYYAGCL]	89.6196%	peptidase resistance in the screening [1]: higher peptidase resistance
